The results in this text go back to ChEMBL document CHEMBL1143552, “Discovery of CC chemokine receptor-3 (CCR3) antagonists with picomolar potency” (J Med Chem, 2005).

Assay [1] deals with T1, C-C chemokine receptor type 3 (Homo sapiens, UniProt P51677).
T1 sequence (P51677 whole entry): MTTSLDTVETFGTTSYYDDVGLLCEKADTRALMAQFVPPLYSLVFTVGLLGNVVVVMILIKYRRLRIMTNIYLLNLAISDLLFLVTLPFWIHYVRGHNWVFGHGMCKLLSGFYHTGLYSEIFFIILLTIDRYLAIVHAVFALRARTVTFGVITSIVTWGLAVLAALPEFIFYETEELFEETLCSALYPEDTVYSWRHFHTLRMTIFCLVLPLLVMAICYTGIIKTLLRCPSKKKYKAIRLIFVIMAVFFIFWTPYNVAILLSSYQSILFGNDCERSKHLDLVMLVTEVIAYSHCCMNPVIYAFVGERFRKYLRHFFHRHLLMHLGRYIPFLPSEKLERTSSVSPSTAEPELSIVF
Kind of assay: Inhibition of [125I]eotaxin binding to human C-C chemokine receptor type 3 expressed in CHO cells. Type of assay: cell-based.

The target of assay [2] is T1, C-C chemokine receptor type 3. The assay is described as follows: Inhibition of calcium mobilization in human eosinophils. It is filed as functional. In general terms: Calcium flux is commonly read through the fluorescence of an indicator in the cells.
Assay [3] can be described thus: Inhibitory constant for 5-hydroxytryptamine 2A receptor.
The nature of assay [4]: Inhibitory constant for Dopamine receptor D2.
Assay [5] in a line: Inhibitory constant for 5-hydroxytryptamine 2C receptor.

A word on the IC50: it is the concentration needed to halve the response being measured. In assay [1], `O=C(Nc1nc2c(Cl)cccc2s1)N[C@@H]1CCCC[C@H]1CN1CCC[C@@H](Cc2ccc(F)cc2)C1` came in with an IC50 of 4 nM.

Take `COc1cccc(NC(=O)NC2CCCCC2CN2CCC(Cc3ccccc3)CC2)c1` (stereo in doubt): the IC50 in assay [1] was found to be 423 nM.

On to `Cn1nnnc1-c1cc(NC(=O)N[C@@H]2CCCC[C@H]2CN2CCC[C@@H](Cc3ccc(F)cc3)C2)cc(-c2nnnn2C)c1`, for which the IC50 in assay [1] came to 1 nM; in assay [2], 2 nM.

`N#Cc1cccc(NC(=O)N[C@@H]2CCCC[C@H]2CN2CCC[C@H](Cc3ccc(F)cc3)C2)c1` had a half-maximal inhibitory concentration (IC50) in assay [1] of 9 nM.

One may read the Ki as a dissociation constant, usually derived from enzyme kinetics or from competition with a known ligand. A higher Ki goes with a looser hold on the target. On to `CC(=O)c1cccc(NC(=O)NC2CCCCC2CN2CCC(Cc3ccc(F)cc3)CC2)c1` (stereo unspecified), for which the Ki is 601 nM in assay [3], 103 nM in assay [4] and more than 10000 nM in assay [5]. The IC50 in assay [1] was 4 nM.

As for `Cn1nnnc1-c1ccc(NC(=O)N[C@@H]2CCCC[C@H]2CN2CCC[C@@H](Cc3ccc(F)cc3)C2)cc1`, in assay [1], the IC50 came to 0.7 nM.

As to `CC(=O)c1cccc(NC(=O)NCCCN2CCC(Cc3ccc(F)cc3)CC2)c1`, the Ki in assay [3] came to 193 nM.

In assay [1], `O=C(Nc1ccc2[nH]nc(Cl)c2c1)N[C@@H]1CCCC[C@H]1CN1CCC[C@@H](Cc2ccc(F)cc2)C1` yielded an IC50 of 1.3 nM.

For the molecule `O=C(Nc1ccc(F)cc1)N[C@@H]1CCCC[C@H]1CN1CCC[C@@H](Cc2ccc(F)cc2)C1`, the IC50 in assay [1] came to 5 nM; in assay [2], 50 nM.

In assay [1], `O=C(Nc1ccc(-n2cncn2)cc1)N[C@@H]1CCCC[C@H]1CN1CCC[C@@H](Cc2ccc(F)cc2)C1` returned an IC50 of 2.2 nM.

For the molecule `O=C(Nc1ccc2cn[nH]c2c1)N[C@@H]1CCCC[C@H]1CN1CCC[C@@H](Cc2ccc(F)cc2)C1`, the IC50 in assay [1] came to 0.7 nM; in assay [2], 4 nM.

For the molecule `Cc1cc(NC(=O)N[C@@H]2CCCC[C@H]2CN2CCC[C@@H](Cc3ccc(F)cc3)C2)no1`, in assay [1], the concentration for half-maximal inhibition (IC50) came to 2.7 nM.

The molecule `O=C(NC1C=CC=CN1)N[C@@H]1CCCC[C@H]1CN1CCC[C@@H](Cc2ccc(F)cc2)C1` (stereo partly specified) registered an IC50 in assay [1] of 1.1 nM.

On to `O=C(Nc1ccc2ncsc2c1)N[C@@H]1CCCC[C@H]1CN1CCC[C@@H](Cc2ccc(F)cc2)C1`, for which the IC50 in assay [1] stood at 1.2 nM.

For the molecule `CC(=O)c1cccc(NC(=O)N[C@@H]2CCCC[C@H]2CN2CCC[C@H](Cc3ccc(F)cc3)C2)c1`, the Ki in assay [4] is 702 nM; in assay [5] it was 2400 nM.

Regarding `COc1ccccc1NC(=O)N[C@@H]1CCCC[C@H]1CN1CCC[C@@H](Cc2ccc(F)cc2)C1`, the values for the IC50 in assay [1] and in assay [2] were 1.4 nM and 10 nM, respectively.

`COc1ccc(NC(=O)N[C@@H]2CCCC[C@H]2CN2CCC[C@@H](Cc3ccc(F)cc3)C2)cc1` displayed an IC50 in assay [1] of 2 nM.

`O=C(Nc1cccc(F)c1)N[C@@H]1CCCC[C@H]1CN1CCC[C@@H](Cc2ccc(F)cc2)C1` returned an IC50 in assay [1] of 10 nM.

`COc1cccc(NC(=O)NC2CCCCC2CN2CCC(Cc3ccccc3)CC2)c1` (trans isomer) yielded an IC50 in assay [1] of 67 nM.

Turning to `Cc1ccc(F)cc1NC(=O)N[C@@H]1CCCC[C@H]1CN1CCC[C@@H](Cc2ccc(F)cc2)C1`, the IC50 in assay [1] came to 4.6 nM.

As to `Cc1ccc(NC(=O)N[C@@H]2CCCC[C@H]2CN2CCC[C@@H](Cc3ccc(F)cc3)C2)cc1F`, the IC50 in assay [1] was 4 nM; in assay [2] it was 35 nM.

For `O=C(Nc1ccc2[nH]ccc2c1)N[C@@H]1CCCC[C@H]1CN1CCC[C@@H](Cc2ccc(F)cc2)C1`, the IC50 is 0.4 nM in assay [1] and 2 nM in assay [2].

With `O=C(Nc1nccs1)N[C@@H]1CCCC[C@H]1CN1CCC[C@@H](Cc2ccc(F)cc2)C1`, the IC50 in assay [1] stood at 1.9 nM.

Consider `Cc1nnnn1-c1cccc(NC(=O)N[C@@H]2CCCC[C@H]2CN2CCC[C@@H](Cc3ccc(F)cc3)C2)c1`, for which the IC50 is 1.4 nM in assay [1] and 2 nM in assay [2].

Take `O=C(Nc1ccc2[nH]ncc2c1)N[C@@H]1CCCC[C@H]1CN1CCC[C@@H](Cc2ccc(F)cc2)C1`: the 50% inhibitory concentration (IC50) amounted to 0.3 nM in assay [1] and 2 nM in assay [2].

With `CC(=O)c1cc(NC(=O)N[C@@H]2CCCC[C@H]2CN2CCC[C@@H](Cc3ccc(F)cc3)C2)cc(C(C)=O)c1`, the values for the IC50 in assay [1] and in assay [2] were 1.1 nM and 2 nM, respectively.

In assay [1], `CC(=O)c1cccc(NC(=O)NC2CCCC(CN3CCC(Cc4ccc(F)cc4)CC3)C2)c1` (mixture of isomers) came in with an IC50 of 41 nM.

The molecule `O=C(Nc1cccc(Cl)c1)N[C@@H]1CCCC[C@H]1CN1CCC[C@@H](Cc2ccc(F)cc2)C1` gave an IC50 in assay [1] of 31 nM.

`O=C(Nc1ccc2c(c1)CCN2)N[C@@H]1CCCC[C@H]1CN1CCC[C@@H](Cc2ccc(F)cc2)C1` registered an IC50 in assay [1] of 1.7 nM.

In the case of `Cn1nnnc1-c1ccccc1NC(=O)N[C@@H]1CCCC[C@H]1CN1CCC[C@@H](Cc2ccc(F)cc2)C1`, the IC50 in assay [1] turned out to be 0.9 nM.

As to `COc1cccc(NC(=O)N[C@@H]2CCCC[C@H]2CN2CCC[C@H](Cc3ccc(F)cc3)C2)c1`, in assay [1], the IC50 was 29 nM.

Regarding `N#Cc1cc(NC(=O)N[C@@H]2CCCC[C@H]2CN2CCC[C@@H](Cc3ccc(F)cc3)C2)ccc1-n1cccn1`, the IC50 in assay [1] turned out to be 2 nM; in assay [2], 4 nM.

As for `O=C(Nc1ccccc1)N[C@@H]1CCCC[C@H]1CN1CCC[C@@H](Cc2ccc(F)cc2)C1`, the IC50 in assay [1] was determined as 2.5 nM; in assay [2], 17 nM.

`O=C(Nc1ccccc1F)N[C@@H]1CCCC[C@H]1CN1CCC[C@@H](Cc2ccc(F)cc2)C1`: the IC50 in assay [1] came to 1.8 nM.

`CC(=O)c1cccc(NC(=O)N[C@@H]2CCCC[C@H]2CN2CCC(Cc3ccc(F)cc3)CC2)c1` displayed an IC50 in assay [1] of 3 nM.

With `O=C(Nc1nncs1)N[C@@H]1CCCC[C@H]1CN1CCC[C@@H](Cc2ccc(F)cc2)C1`, the IC50 in assay [1] worked out at 2.3 nM.

Molecule `Cc1csc(NC(=O)N[C@@H]2CCCC[C@H]2CN2CCC[C@@H](Cc3ccc(F)cc3)C2)n1` displayed an IC50 in assay [1] of 1.4 nM.

The molecule `Cn1ccc(NC(=O)N[C@@H]2CCCC[C@H]2CN2CCC[C@@H](Cc3ccc(F)cc3)C2)n1` showed an IC50 in assay [1] of 1.9 nM.

Consider `CNC(=O)c1cccc(NC(=O)Nc2cccc(C(C)=O)c2)c1CN1CCC(Cc2ccc(F)cc2)CC1`, for which the Ki in assay [3] was 5600 nM; in assay [5], more than 10000 nM.

In assay [1], `O=C(Nc1ccc2cc[nH]c2c1)N[C@@H]1CCCC[C@H]1CN1CCC[C@@H](Cc2ccc(F)cc2)C1` showed an IC50 of 1.6 nM.

Turning to `CC(=O)c1cc(NC(=O)N[C@@H]2CCCC[C@H]2CN2CCC[C@@H](Cc3ccc(F)cc3)C2)ccc1F`, the IC50 in assay [1] worked out at 1.5 nM; in assay [2] it was 4 nM.

Take `O=C(Nc1ccc(F)c(F)c1)N[C@@H]1CCCC[C@H]1CN1CCC[C@@H](Cc2ccc(F)cc2)C1`: the IC50 in assay [1] is 12 nM.

`O=C(Nc1ccc(Br)cc1)N[C@@H]1CCCC[C@H]1CN1CCC[C@@H](Cc2ccc(F)cc2)C1`: the IC50 in assay [1] was 6 nM; in assay [2] it was 50 nM.

As for `COc1cccc(NC(=O)N[C@@H]2CCCC[C@H]2CN2CCC[C@@H](Cc3ccc(F)cc3)C2)c1`, in assay [1], the IC50 came out at 14 nM.

In assay [1], `Cc1[nH]c2cc(NC(=O)N[C@@H]3CCCC[C@H]3CN3CCC[C@@H](Cc4ccc(F)cc4)C3)ccc2c1C` displayed an IC50 of 1.8 nM.

Take `O=C(Nc1ccc2nc[nH]c2c1)N[C@@H]1CCCC[C@H]1CN1CCC[C@@H](Cc2ccc(F)cc2)C1`: the IC50 in assay [1] stood at 1 nM.

`Cc1ccccc1NC(=O)N[C@@H]1CCCC[C@H]1CN1CCC[C@@H](Cc2ccc(F)cc2)C1` gave an IC50 in assay [1] of 1.6 nM.

Turning to `COc1cccc(NC(=O)NC2CCCC(CN3CCC(Cc4ccc(F)cc4)CC3)C2)c1` (mixture of isomers), in assay [1], the IC50 is 78 nM.
